Assay results: PubChem BioAssay (NCI)
Values joined by “and” are separate entries in the source; they are usually repeats but may differ in a detail not shown here. Identical values can stand only once.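 Five compound concentrations were applied to cells in 96-well plates for 48 hours; endpoints were derived by simple linear interpolation of the resulting dose-response curve. The concentration for 50% growth inhibition is given as GI50. The concentration for full growth arrest is given as TGI.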

Experiments:
Assay in all cases: growth of human tumour cells (NCI), 48 h
[1] = tested on: DLD-1 colon
[2] = tested on: RXF-631 renal
[3] = tested on: KM20L2 colon
[4] = tested on: DMS 114 small cell lung
[5] = tested on: DMS 273 small cell lung
[6] = tested on: M19-MEL melanoma
[7] = tested on: MCF7 breast
[8] = tested on: MDA-MB-435
[9] = tested on: DU-145 prostate
[10] = tested on: MDA-MB-231 breast

Row | SMILES | TGI [1] | TGI [2] | TGI [3] | TGI [4] [µM] | TGI [5] [µM] | TGI [6] | GI50 [1] [µM] | GI50 [2] [µM] | GI50 [3] [µM] | GI50 [6] [µM] | TGI [7] [µM] | TGI [8] [µM] | TGI [9] [µM] | TGI [10] [µM]
1 | COc1ccc(/C=C/C(=O)c2c(-c3ccccc3)nn(C)c(=O)c2N2CCCCC2)cc1 | 82.6 µM | > 100 µM | 33.8 µM | 78.4 | > 100 | 79.3 µM |  |  |  |  |  |  |  | 
2 | O=C([O-])c1ccc([I+]c2ccccc2)cc1 | > 100 µM | > 100 µM | > 100 µM | > 100 | > 100 | > 100 µM |  |  |  |  |  |  |  | 
3 | CCCCCCCCCCCCCC(=O)O[C@H]1CC[C@H](NC(=O)[C@H](OC)[C@H](O)[C@@H](O)[C@H](O)/C=C/C(C)C)C(=O)N(C)C1 | 15 µM and > 23.8 µM | 15 µM and 4.07 µM | 15 µM and 3.8 µM | 0.817 | 0.00403 | 15 µM and 3.89 µM | 0.00278 | 0.00238 | < 0.0015 | 0.00238 |  |  |  | 
4 | CCOC(=O)C1=C(C)N(NC(N)=O)C2(N)N(NC(N)=O)C(C)=C(C(=O)OCC)C12C#N (centres undefined) | > 100 µM | > 100 µM | > 100 µM | > 100 | > 100 | > 100 µM |  |  |  |  |  |  |  | 
5 | OC1=CN=C(c2ccccc2)Oc2ccccc21 | > 100 µM | > 100 µM | > 100 µM | > 100 | > 100 | > 100 µM |  |  |  |  |  |  |  | 
6 | CNC(=O)OCc1nc(SSc2nc(COC(=O)NC)c(COC(=O)NC)n2C)n(C)c1COC(=O)NC | > 100 µM | > 100 µM | > 100 µM | > 100 | > 100 | > 100 µM |  |  |  |  |  |  |  | 
7 | CC(C)N(C(=O)C12C3C4C1C1C4(C#N)C3C12C(=O)O)C(C)C (centres undefined) | > 100 µM | > 100 µM | > 100 µM | > 100 | > 100 | > 100 µM |  |  |  |  |  |  |  | 
8 | CC(C)(C)OC(=O)N[C@H]1CC(=O)c2ccccc2N(CC(=O)O)C1=O | > 100 µM | > 100 µM | > 100 µM | > 100 | > 100 | > 100 µM |  |  |  |  |  |  |  | 
9 | COS(=O)c1cc(Cl)cc(Cl)c1OC(=O)CSSCC(=O)Oc1c(Cl)cc(Cl)cc1S(=O)OC (centres undefined) | 40.7 µM | 63.7 µM | 67.2 µM | 35.3 | 32.7 | 57.7 µM |  |  |  |  |  |  |  | 
10 | CCCC(O)[C@@]1(CC)CC(C)C(O)(C2(C)C[C@H](C)[C@@H](C(CC)C(=O)C(C)[C@@H](O)[C@H](C)C3OC(O)(C(CC)C(=O)O)[C@@H](C)C(O)C3CC)O2)O1 (some centres undefined) | 8.86 µM | 1.93 µM | 4.13 µM | 1.08 | 5.93 | 2.17 µM |  |  |  |  | 2.17 | 1.2 | 1.31 | 2.11
11 | Cc1nc2ccncc2[nH]1 | > 100 µM | > 100 µM | > 100 µM | > 100 | > 100 | > 100 µM |  |  |  |  |  |  |  | 
